Experimental data as given in US20260072021A1, “SYSTEM, METHOD, AND APPARATUS FOR MICRONEEDLE ARRAY-BASED IMM[…] MULTIPLEX DETECTION OF BIOMARKERS” (The General Hospital Corporation, priority 2022, published 2026).

Tests used:
[1] = Pharmacokinetic study: blood concentrations of cocaine and BZE in mice after IP cocaine (LC-MS); type: in vivo; details: cocaine 1.5 mg/Kg IP, blood sampled at 0, 0.5, 1 and 5 min post-injection
Method: Panel A. Time-dependent blood concentrations of COC and BZE in mice receiving 1.5 mg/Kg cocaine per mouse via IP injection. Panel B. Experimental setup of in vivo detection of circulating COC/BZE using MN-based aptasensor on a B6 black mouse. Panel C. Time-dependent fluorescence intensity of an individual MN that pierces into the mouse skin.
An optical fiber of 500 um in diameter was engineered including 6 emission light collection fibers each at 125 um in diameter, surrounding the single excitation light fiber at the center (FIGS. 13a & 13c). The excitation laser (532-589 nm) is administered directly to the upper dermis via the fiber and transparent MNA to induce skin capillary leakage or extravasation of biomarkers. […] To validate this, cocaine was IP administered at 1.5 mg/Kg per mouse and blood was sampled at 0, 0.5, 1, and 5 min, post-injection. […] When the MNA aptasensor was inserted into the black B6 mice receiving 1.5 mg/kg cocaine intraperitoneally and illuminated with 532 nm laser on the dorsal skin (FIG. 15B), a significant growth of fluorescence intensity as a function of time due to displacement of QDNA by cocaine was clearly seen on individual microneedles (FIG. 15C), confirming the ability of the aptasensor to detect the illicit drug in real time. […]

[2] = humans; cited from earlier work

| SMILES | blood concentration over time [1] | cocaine concentration in blood [2] [mg/L] |
| --- | --- | --- |
| CN1[C@H]2CC[C@@H]1[C@@H](C(=O)O)[C@@H](OC(=O)c1ccccc1)C2 [BZE, benzoylecgonine] | increasing sharply at the first 1 min and then stayed in plateau |  |
| COC(=O)[C@H]1[C@@H](OC(=O)c2ccccc2)C[C@@H]2CC[C@H]1N2C [cocaine] | slightly increased over the 5 min | 0.06 to 0.1 |
